According to PMC9995734, “Polysulfide metabolizing enzymes influence SqrR-mediated sulfide-induced transcription by impacting intracellular polysulfide dynamics” (PNAS Nexus, 2023):
One block for each compound: values may come before it.

How the values were obtained:
SqrR = target: T1, SqrR (Rhodobacter capsulatus, UniProt D5AT91); assay: fluorescence anisotropy of DNA dissociation; LC-ESI-MS of adducts; format: binding; conditions: covalent; pseudo-first-order oxidation of C41/C107; 20-fold excess sulfane sulfur, persulfide made in situ; DNA-bound SqrR; 25 mM HEPES pH 7.0, 400 mM NaCl, 1 mM EDTA, 25°C
T1 construct: recombinant, full-length, reduced C9S protomer 12295 amu
T1 sequence (D5AT91 15-124): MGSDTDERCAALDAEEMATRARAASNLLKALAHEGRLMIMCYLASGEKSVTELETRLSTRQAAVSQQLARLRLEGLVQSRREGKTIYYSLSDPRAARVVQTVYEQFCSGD
Text: fluorescence anisotropy of DNA dissociation; LC-ESI-MS of adducts on SqrR

[1] = test system: SqrR C9S (reduced) (Rhodobacter capsulatus (SB1003?)); assay: fluorescence anisotropy; conditions: SqrR titrated into fluorescein-labeled operator in quartz cuvette without TCEP, buffer, salt, pH and temperature not given in the …
[2] = test system: SqrR C9S, CysSSH-treated (oxidized) (Rhodobacter capsulatus (SB1003?)); assay: fluorescence anisotropy; conditions: SqrR titrated into fluorescein-labeled operator in quartz cuvette without TCEP, buffer, salt, pH and temperature not given in the …
[3] = test system: SqrR C9S, GSSH-treated (oxidized) (Rhodobacter capsulatus (SB1003?)); assay: fluorescence anisotropy; conditions: SqrR titrated into fluorescein-labeled operator in quartz cuvette without TCEP, buffer, salt, pH and temperature not given in the …
SQR [4] = target: T2, SQR (Rhodobacter capsulatus, UniProt D5APH8); assay: steady-state sulfide:quinone reductase assay; format: biochemical; conditions: electron acceptor at 100 μM; 4 mM KCN as S0 acceptor, Na2S 0-640 μM, 100 nM SQR
T2 sequence (D5APH8 1-427): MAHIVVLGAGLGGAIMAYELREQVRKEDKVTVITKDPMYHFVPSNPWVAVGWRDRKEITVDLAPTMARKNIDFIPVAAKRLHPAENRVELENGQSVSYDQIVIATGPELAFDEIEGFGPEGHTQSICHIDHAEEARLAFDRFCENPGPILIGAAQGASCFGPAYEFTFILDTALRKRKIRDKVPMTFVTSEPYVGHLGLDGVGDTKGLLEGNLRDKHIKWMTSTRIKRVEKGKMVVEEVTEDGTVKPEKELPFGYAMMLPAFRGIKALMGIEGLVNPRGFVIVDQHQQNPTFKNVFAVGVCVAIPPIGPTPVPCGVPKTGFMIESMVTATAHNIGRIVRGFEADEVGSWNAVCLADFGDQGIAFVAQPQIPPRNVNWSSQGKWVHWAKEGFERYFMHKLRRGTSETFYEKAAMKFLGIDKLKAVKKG

SQR [5] = target: T2, SQR; assay: co-purification; format: binding; conditions: noncovalently bound

- kox [x 10^-3 s^-1]^a / CSSH (SqrR): 3.8 ± 0.1 x 10^-3 s^-1
Compound: N[C@@H](CSS)C(=O)O [cysteine persulfide]

Compound: TGACATATTCACAACTCGGAATGTAA / TTACATTCCGAGTGGTGAATATGTCA
- Ka [1]: 270 10^5 M-1
- Ka [2]: 1.8 10^5 M-1
- Ka [3]: 2.5 10^5 M-1

Compound: CC1=CC(=O)c2ccccc2C1=O [menadione]
- steady-state sulfide:quinone reductase assay (SQR [4]): the steady-state activity was higher with MD

- kox [x 10^-3 s^-1]^a / GSSH (SqrR): 0.86 ± 0.05 x 10^-3 s^-1
Compound: N[C@@H](CCC(=O)N[C@@H](CSS)C(=O)NCC(=O)O)C(=O)O [glutathione persulfide]

Compound: COC1=C(OC)C(=O)C(CC=C(C)C)=C(C)C1=O [ubiquinone-1]
- steady-state sulfide:quinone reductase assay (SQR [4]): the activity with UQ-1 was also sufficient for further analyses

Compound: Cc1cc2nc3c(=O)[nH]c(=O)nc-3n(C[C@H](O)[C@H](O)[C@H](O)COP(=O)(O)OP(=O)(O)OC[C@H]3O[C@@H](n4cnc5c(N)ncnc54)[C@H](O)[C@@H]3O)c2cc1C [flavin adenine dinucleotide]
- co-purification (SQR [5]): recombinant R. capsulatus SQR noncovalently bound with flavin adenine dinucleotide (FAD)
